Data published in ChEMBL document CHEMBL3352403, “New class of methyl tetrazole based hybrid of (Z)-5-benzylidene-2-(piperazin-1-yl)thiazol-4(%H)-one as potent antitubercular agents” (Bioorg Med Chem Lett, 2014).
In brackets after ≈: the same amount, converted by molar mass. Several values for one entry are separate records, joined by “and”; a condition that tells them apart may be missing. Equal entries are not always repeated.

Experiments:
[1] = test system: Mycobacterium tuberculosis; assay: Antitubercular activity against Mycobacterium tuberculosis H37Rv after 4 weeks; assay type: functional; settings: 672 h
[2] = Cytotoxicity against mouse MBMDMphi cells after 48 hrs by MTS assay; assay type: cell-based
[3] = Cytotoxicity against african green monkey Vero cells after 24 hrs by MTS assay; assay type: cell-based; settings: chlorocebus sabaeus
[4] = test system: Mycobacterium tuberculosis; assay: Ratio of ethambutol MIC to compound MIC for Mycobacterium tuberculosis H37Rv after 4 weeks; assay type: functional

**Q.** With `CC(C)(C)n1nnnc1C(c1ccccc1)N1CCN(C2=NC(=O)/C(=C/c3ccccc3)S2)CC1` (centres undefined) as the compound, how does the MIC [1] read?
**A.** Its MIC is > 12.5 µg/mL.

**Q.** Which results are given for `CC(C)(C)n1nnnc1C(c1ccccc1F)N1CCN(C2=NC(=O)/C(=C/c3ccccc3)S2)CC1` (centres undefined)?
**A.** CC50 at 48 h [2]: > 100 µM; CC50 at 24 h [3]: > 100 µM; MIC [1]: 6.25 µg/mL and 12.3 µM

**Q.** Which results are given for `CC(C)(C)n1nnnc1C(c1ccc(F)cc1)N1CCN(C2=NC(=O)/C(=C/c3ccccc3)S2)CC1` (centres undefined)?
**A.** CC50 at 48 h [2]: > 100 µM; Ratio [4]: 3; CC50 at 24 h [3]: > 100 µM; MIC [1]: 1.56 µg/mL and 3.08 µM

**Q.** Which results are given for `CC(C)(C)n1nnnc1C(c1ccccc1Cl)N1CCN(C2=NC(=O)/C(=C/c3ccccc3)S2)CC1` (centres undefined)?
**A.** CC50 at 48 h [2]: > 100 µM; CC50 at 24 h [3]: > 100 µM; MIC [1]: 12.5 µg/mL and 23.9 µM

**Q.** Which CC50 at 48 h [2] does the source give for `CC(C)(C)n1nnnc1C(c1ccc(Cl)cc1)N1CCN(C2=NC(=O)/C(=C/c3ccccc3)S2)CC1` (centres undefined) here?
**A.** The CC50 at 48 h was > 100 µM.

**Q.** What about the CC50 at 24 h [3] of the same compound?
**A.** The CC50 at 24 h was > 100 µM.

**Q.** What about the MIC [1] of the same compound?
**A.** The MIC was 6.25 µg/mL and 11.9 µM.

**Q.** Which results are given for `CC(C)c1ccc(C(c2nnnn2C(C)(C)C)N2CCN(C3=NC(=O)/C(=C/c4ccccc4)S3)CC2)cc1` (centres undefined)?
**A.** CC50 at 48 h [2]: > 100 µM; CC50 at 24 h [3]: > 100 µM; MIC [1]: > 12.5 µg/mL

**Q.** With `COc1ccc(C(c2nnnn2C(C)(C)C)N2CCN(C3=NC(=O)/C(=C/c4ccccc4)S3)CC2)cc1` (centres undefined) as the compound, how does the CC50 at 48 h [2] read?
**A.** Its CC50 at 48 h is > 100 µM.

**Q.** What about the Ratio [4] of the same compound?
**A.** The Ratio was 3.

**Q.** And the CC50 at 24 h [3]?
**A.** Its CC50 at 24 h is > 100 µM.

**Q.** What about the MIC [1] of the same compound?
**A.** The MIC was 1.56 µg/mL and 3.01 µM.

**Q.** Which results are given for `COc1ccc(C(c2nnnn2C(C)(C)C)N2CCN(C3=NC(=O)/C(=C/c4ccccc4)S3)CC2)cc1OC` (centres undefined)?
**A.** CC50 at 48 h [2]: > 100 µM; CC50 at 24 h [3]: > 100 µM; MIC [1]: 6.25 µg/mL and 11.4 µM

**Q.** Which CC50 at 48 h [2] does the source give for `COc1cc(C(c2nnnn2C(C)(C)C)N2CCN(C3=NC(=O)/C(=C/c4ccccc4)S3)CC2)cc(OC)c1OC` (centres undefined) here?
**A.** Its CC50 at 48 h is > 100 µM.

**Q.** What about the CC50 at 24 h [3] of the same compound?
**A.** Its CC50 at 24 h is > 100 µM.

**Q.** What about the MIC [1] of the same compound?
**A.** The MIC was 6.25 µg/mL and 10.8 µM.

**Q.** With `CC(C)(C)n1nnnc1C(c1ccncc1)N1CCN(C2=NC(=O)/C(=C/c3ccccc3)S2)CC1` (centres undefined) as the compound, how does the MIC [1] read?
**A.** Its MIC is 6.25 µg/mL and 12.8 µM.

**Q.** With `CC(C)(C)n1nnnc1C(c1cccnc1)N1CCN(C2=NC(=O)/C(=C/c3ccccc3)S2)CC1` (centres undefined) as the compound, how does the CC50 at 48 h [2] read?
**A.** Its CC50 at 48 h is > 100 µM.

**Q.** What about the CC50 at 24 h [3] of the same compound?
**A.** Its CC50 at 24 h is > 100 µM.

**Q.** What about the MIC [1] of the same compound?
**A.** The MIC was 6.25 µg/mL and 12.8 µM.

**Q.** What does the source list for `CC(C)(C)n1nnnc1C(c1ccoc1)N1CCN(C2=NC(=O)/C(=C/c3ccccc3)S2)CC1` (centres undefined)?
**A.** CC50 at 48 h [2]: 45.9 µM; CC50 at 24 h [3]: > 100 µM; MIC [1]: 6.25 µg/mL and 13.1 µM

**Q.** What does the source list for `O=C1N=C(N2CCN(C(c3ccccc3)c3nnnn3C3CCCCC3)CC2)S/C1=C\c1ccccc1` (centres undefined)?
**A.** CC50 at 48 h [2]: > 100 µM; CC50 at 24 h [3]: > 100 µM; MIC [1]: 6.25 µg/mL and 12.1 µM

**Q.** With `O=C1N=C(N2CCN(C(c3ccccc3F)c3nnnn3C3CCCCC3)CC2)S/C1=C\c1ccccc1` (centres undefined) as the compound, how does the MIC [1] read?
**A.** The MIC was 12.5 µg/mL (≈ 23.5 µM).

**Q.** Which results are given for `O=C1N=C(N2CCN(C(c3ccc(F)cc3)c3nnnn3C3CCCCC3)CC2)S/C1=C\c1ccccc1` (centres undefined)?
**A.** CC50 at 48 h [2]: > 100 µM; CC50 at 24 h [3]: > 100 µM; MIC [1]: 6.25 µg/mL and 11.7 µM

**Q.** With `O=C1N=C(N2CCN(C(c3ccccc3Cl)c3nnnn3C3CCCCC3)CC2)S/C1=C\c1ccccc1` (centres undefined) as the compound, how does the CC50 at 48 h [2] read?
**A.** The CC50 at 48 h was > 100 µM.

**Q.** What about the CC50 at 24 h [3] of the same compound?
**A.** Its CC50 at 24 h is > 100 µM.

**Q.** What about the MIC [1] of the same compound?
**A.** Its MIC is 6.25 µg/mL and 11.4 µM.

**Q.** For `O=C1N=C(N2CCN(C(c3ccc(Cl)cc3)c3nnnn3C3CCCCC3)CC2)S/C1=C\c1ccccc1` (centres undefined), which MIC [1] is on record?
**A.** Its MIC is 12.5 µg/mL and 22.8 µM.

**Q.** Which CC50 at 48 h [2] does the source give for `CC(C)c1ccc(C(c2nnnn2C2CCCCC2)N2CCN(C3=NC(=O)/C(=C/c4ccccc4)S3)CC2)cc1` (centres undefined) here?
**A.** Its CC50 at 48 h is > 100 µM.

**Q.** What about the CC50 at 24 h [3] of the same compound?
**A.** Its CC50 at 24 h is > 100 µM.

**Q.** And the MIC [1]?
**A.** The MIC was 6.25 µg/mL and 11.2 µM.

**Q.** For `COc1ccc(C(c2nnnn2C2CCCCC2)N2CCN(C3=NC(=O)/C(=C/c4ccccc4)S3)CC2)cc1` (centres undefined), which MIC [1] is on record?
**A.** Its MIC is 6.25 µg/mL and 11.5 µM.

**Q.** For `COc1ccc(C(c2nnnn2C2CCCCC2)N2CCN(C3=NC(=O)/C(=C/c4ccccc4)S3)CC2)cc1OC` (centres undefined), which MIC [1] is on record?
**A.** The MIC was 6.25 µg/mL and 10.9 µM.

**Q.** With `COc1cc(C(c2nnnn2C2CCCCC2)N2CCN(C3=NC(=O)/C(=C/c4ccccc4)S3)CC2)cc(OC)c1OC` (centres undefined) as the compound, how does the CC50 at 48 h [2] read?
**A.** Its CC50 at 48 h is > 100 µM.

**Q.** What about the CC50 at 24 h [3] of the same compound?
**A.** The CC50 at 24 h was > 100 µM.

**Q.** And the MIC [1]?
**A.** Its MIC is 6.25 µg/mL and 10.3 µM.

**Q.** For `O=C1N=C(N2CCN(C(c3ccncc3)c3nnnn3C3CCCCC3)CC2)S/C1=C\c1ccccc1` (centres undefined), which MIC [1] is on record?
**A.** The MIC was 6.25 µg/mL and 12.1 µM.

**Q.** Which MIC [1] does the source give for `O=C1N=C(N2CCN(C(c3cccnc3)c3nnnn3C3CCCCC3)CC2)S/C1=C\c1ccccc1` (centres undefined) here?
**A.** Its MIC is 6.25 µg/mL and 12.1 µM.

**Q.** Which MIC [1] does the source give for `O=C1N=C(N2CCN(C(c3ccoc3)c3nnnn3C3CCCCC3)CC2)S/C1=C\c1ccccc1` (centres undefined) here?
**A.** The MIC was 6.25 µg/mL and 12.4 µM.

**Q.** With `CC[C@@H](CO)NCCN[C@@H](CC)CO` [ETHAMBUTOL] as the compound, how does the MIC [1] read?
**A.** Its MIC is 2 µg/mL and 9.78 µM.

**Q.** For `NNC(=O)c1ccncc1` [ISONIAZID], which MIC [1] is on record?
**A.** Its MIC is 0.02 µg/mL and 0.14 µM.

**Q.** For `NC(=O)c1cnccn1` [PYRAZINAMIDE], which MIC [1] is on record?
**A.** Its MIC is 12.5 µg/mL and 102 µM.
